Reference: patent US11787762B2, “Tetralin and tetrahydroquinoline compounds as inhibitors of HIF-2alpha” (ARCUS BIOSCIENCES, INC., priority 2020, dated 2023)

Key:
[1] = target: T1, Histidine tagged HIF-2α protein containing PAS-B domain (240-350) (Homo sapiens, UniProt Q99814); test: HIF-2α Scintillation Proximity Assay (SPA) binding assay; details: 50 nM HIF-2α protein, 25 nM 3H-tracer
T1 construct: HIF-2α protein containing PAS-B domain (240-350); made in house
Summary of the method: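 His-tagged HIF-2α PAS-B (240-350), 50 nM final, preincubated with compound 1 h at room temperature in 25 mM Tris-HCl pH 7.4, 150 mM NaCl, 0.15% BSA, 0.001% Tween 20, 2% DMSO. Copper-chelate SPA beads (3 ug/well, 45 min) and 25 nM tritiated N-(3-chlorophenyl)-4-nitro-2,1,3-benzoxadiazol-5-amine tracer followed; IC50 from four-parameter fits.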

HIF-2α = target: T2, HIF-2α (Homo sapiens, UniProt Q99814); test: HIF-2α luciferase reporter assay in HIF-Luc-786-O cells; type: cell-based
T2 construct: host or cells: 786-O cells stably transduced with Cignal Lenti HIF Luc Reporter (only the reporter was introduced, not HIF-2α)
Summary of the method: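 Luminescence (ONE-Glo) read after 20 h compound incubation, top concentration 50 uM, 1% DMSO, 20,000 HIF-Luc-786-O cells per well. Activity scaled between DMSO maximum and no-cell baseline; four-parameter dose-response fits yielded IC50.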

T2 sequence (Q99814 whole entry): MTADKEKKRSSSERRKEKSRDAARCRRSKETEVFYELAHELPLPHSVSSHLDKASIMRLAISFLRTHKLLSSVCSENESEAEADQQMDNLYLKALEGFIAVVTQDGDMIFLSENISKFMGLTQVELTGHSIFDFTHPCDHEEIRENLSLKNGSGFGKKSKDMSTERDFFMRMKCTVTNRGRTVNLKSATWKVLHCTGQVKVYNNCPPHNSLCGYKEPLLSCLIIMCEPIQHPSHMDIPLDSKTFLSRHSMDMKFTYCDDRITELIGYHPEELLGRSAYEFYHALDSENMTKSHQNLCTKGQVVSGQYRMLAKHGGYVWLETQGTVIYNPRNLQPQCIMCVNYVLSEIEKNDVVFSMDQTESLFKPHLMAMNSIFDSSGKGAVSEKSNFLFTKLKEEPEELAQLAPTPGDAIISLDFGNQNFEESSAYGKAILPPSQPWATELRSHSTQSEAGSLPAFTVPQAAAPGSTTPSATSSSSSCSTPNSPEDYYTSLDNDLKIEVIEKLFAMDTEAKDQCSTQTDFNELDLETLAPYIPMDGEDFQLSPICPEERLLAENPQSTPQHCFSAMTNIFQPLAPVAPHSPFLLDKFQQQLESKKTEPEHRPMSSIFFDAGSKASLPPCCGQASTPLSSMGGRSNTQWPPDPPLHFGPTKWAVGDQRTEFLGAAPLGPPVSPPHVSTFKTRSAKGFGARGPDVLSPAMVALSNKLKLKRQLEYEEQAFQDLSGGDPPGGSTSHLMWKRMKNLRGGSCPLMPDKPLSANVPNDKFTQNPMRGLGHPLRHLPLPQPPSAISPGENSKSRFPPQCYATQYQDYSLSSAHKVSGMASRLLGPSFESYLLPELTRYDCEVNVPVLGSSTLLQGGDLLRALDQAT
T1 sequence (Q99814 240-350): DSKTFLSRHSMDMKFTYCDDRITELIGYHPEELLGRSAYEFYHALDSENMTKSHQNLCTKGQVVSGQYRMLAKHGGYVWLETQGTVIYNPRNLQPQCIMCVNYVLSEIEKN

SMILES	IC50 ([1]; Table 2) [nM]	IC50 (HIF-2α; Table 2, 20 hours incubation) [nM]	IC50 ([1]; Table 1) [nM]	IC50 (HIF-2α; Table 1, 20 hours incubation) [nM]
Cc1c(N2CCC(F)(F)c3cc(F)cc(C#N)c32)cnc(C(F)(F)F)c1C#N [Example 128, 1-[5-cyano-4-methyl-6-(trifluoromethyl)pyridin-3-yl]-4,4,6-trifluoro-2,3-dihydroquinoline-8-carbonitrile]	< 100	< 100		
N#Cc1cc(F)cc2c1N(c1cnc(C(F)(F)F)c(F)c1)CCC2 [Example 32]			100 to 1000	100 to 1000
N#Cc1cc(F)cc2c1[C@H](c1ccc(C(F)(F)F)c3c1OC(F)(F)[C@H]3O)CCC2 [Example 108]			> 1000	> 1000
N#Cc1cc(N2CCCc3cc(F)cc(C#N)c32)ccc1C(F)(F)F [Example 39]			< 100	> 1000
O=S(=O)(c1ccc(N2CCCc3cc(F)cc(F)c32)c2c1C(F)C(F)(F)C2)C(F)(F)F (stereo not drawn) [Example 48]			100 to 1000	> 1000
N#Cc1cc(F)cc2c1N(c1ccc(C(F)(F)F)c(F)c1C#N)CCC2O (stereo not drawn) [Example 119]			> 1000	100 to 1000
N#Cc1cc(F)cc2c1N(c1ccc(C(F)(F)F)c(F)c1C#N)CCC2(F)F [Example 125, 1-[2-cyano-3-fluoro-4-(trifluoromethyl)phenyl]-4,4,6-trifluoro-2,3-dihydroquinoline-8-carbonitrile]	< 100	< 100		
O=S(=O)(c1ccc([C@H]2CCNc3cc(F)cc(F)c32)c2c1[C@H](O)[C@H](F)C2)C(F)(F)F [Example 102]			> 1000	> 1000
CS(=O)(=O)c1ccc(N2CCCc3cc(F)cc(F)c32)c(Cl)c1C#N [Example 43]			100 to 1000	> 1000
N#Cc1cc(F)cc2c1N(c1ccc(C(F)(F)F)c(F)c1Cl)CCC2 [Example 15, 1-[2-chloro-3-fluoro-4-(trifluoromethyl)phenyl]-6-fluoro-1,2,3,4-tetrahydroquinoline-8-carbonitrile]			100 to 1000	100 to 1000
N#Cc1cc(S(=O)(=O)C(F)(F)F)ccc1N1CCCc2cc(F)cc(F)c21 [Example 80]			> 1000	> 1000
O=S(=O)(c1ccc([C@H]2CCOc3cc(F)cc(F)c32)c2c1[C@H](O)[C@H](F)C2)C(F)(F)F [Example 8, (1S,2R)-4-[(4R)-5,7-difluoro-3,4-dihydro-2H-1-benzopyran-4-yl]-2-fluoro-7-trifluoromethanesulfonyl-2,3-dihydro-1H-inden-1-ol]			100 to 1000	100 to 1000
CS(=O)(=O)c1ccc([C@H]2CCCc3cc(F)cc(F)c32)c2c1[C@H](O)C(F)(F)C2 [Example 93]			< 100	100 to 1000
O=S(=O)(c1ccc(N2CCCc3cc(F)cc(F)c32)c(Cl)c1C(O)C(F)(F)F)C(F)(F)F (stereo not drawn) [Example 79]			> 1000	> 1000
O=S(=O)(c1ccc(N2CCCc3cc(F)cc(F)c32)c2c1C(O)CC2)C(F)(F)F (stereo not drawn) [Example 78]			> 1000	> 1000
